Experimental data as given in patent US20230022157A1 (Achillion Pharmaceuticals, Inc., priority 2018, published 2023).

These compounds were tested against T1, Human Factor D (Homo sapiens, UniProt P00746) (assay: Human Factor D Assay). Details: Human Factor D 80 nM, substrate Z-L-Lys-SBzl, assay of Example 3; read-out: IC50 (Stars).
T1 construct: purified from human serum; purchased Complement Technology, Inc; host or cells: human serum (natural protein, not recombinant)
Assay type: biochemical
Procedure, shortened: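 Serum-purified human factor D (80 nM final) preincubated 5 min at room temperature with test compound in 50 mM Tris, 1M NaCl, pH 7.5. Z-L-Lys-SBzl substrate and DTNB then added, each at 100 μM final. IC50 from nonlinear regression of reaction rate against compound concentration.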

T1 sequence (P00746 26-253): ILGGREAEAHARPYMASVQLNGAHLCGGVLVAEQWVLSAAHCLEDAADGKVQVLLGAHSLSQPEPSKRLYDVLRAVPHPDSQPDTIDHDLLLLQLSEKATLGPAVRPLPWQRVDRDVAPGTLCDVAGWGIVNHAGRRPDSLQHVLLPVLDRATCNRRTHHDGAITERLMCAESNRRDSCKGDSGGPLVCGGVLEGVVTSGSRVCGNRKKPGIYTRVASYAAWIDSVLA

| SMILES | IC50 [nM] |
| --- | --- |
| CC(=O)c1nn(CC(=O)N2[C@H](C(=O)NCCc3cc(Cl)ccc3Cl)C[C@@]3(C)C[C@@H]23)c2c(C)cc(-c3cnc(C)nc3)cc12 [Compound 4, (1R,3S,5R)-2-(2-(3-Acetyl-7-methyl-5-(2-methylpyrimidin-5-yl)-1H-indazol-1-yl)acetyl)-N-(2,5-dichlorophenethyl)-5-methyl-2-azabicyclo[3.1.0]hexane-3-carboxamide] | < 1000 |
| CC(=O)c1nn(CC(=O)N2[C@H](C(=O)Nc3nc(C(F)(F)F)ccc3C)C[C@@]3(C)C[C@@H]23)c2ccc(-c3cncc(S(N)(=O)=O)c3)cc12 [Compound 22, (1R,3S,5R)-2-(2-(3-Acetyl-5-(5-sulfamoylpyridin-3-yl)-1H-indazol-1-yl)acetyl)-5-methyl-N-(3-methyl-6-(trifluoromethyl)pyridin-2-yl)-2-azabicyclo[3.1.0]hexane-3-carboxamide] | < 1000 |
| CC(=O)c1nn(CC(=O)N2C[C@H](F)C[C@H]2C(=O)Nc2cccc(Br)n2)c2ccc(-c3ccc(C)c(F)c3)cc12 [Compound 34, (2S,4R)-1-(2-(3-Acetyl-5-(3-fluoro-4-methylphenyl)-1H-indazol-1-yl)acetyl)-N-(6-bromopyridin-2-yl)-4-fluoropyrrolidine-2-carboxamide] | < 1000 |
| CC(=O)c1nn(CC(=O)N2[C@H](C(=O)Nc3cccc(C(F)(F)F)c3F)C[C@@]3(C)C[C@@H]23)c2cnc(-c3cnc(C)nc3)cc12 [Compound 23, (1R,3S,5R)-2-(2-(3-Acetyl-5-(2-methylpyrimidin-5-yl)-1H-pyrazolo[3,4-C]pyridine-1-yl)acetly)-N-(2-fluoro-3-(trifluoromethyl)phenyl)-5-methyl-2-azabicyclo[3.1.0]hexane-3-carboxamide] | < 1000 |
| CONC(=O)c1nn(CC(=O)N2[C@H](C(=O)Nc3nc(Br)ccc3C)C[C@@]3(C)C[C@@H]23)c2ccc(-c3cnc(C)nc3)cc12 [Compound 9, 1-(2-((1R,3S,5R)-3-((6-Bromo-3-methylpyridin-2-yl)carbamoyl)-5-methyl-2-azabicyclo[3.1.0]hexan-2-yl)-2-oxoethyl)-N-methoxy-5-(2-methylpyrimidin-5-yl)-1H-indazole-3-carboxamide] | < 1000 |

The next lines start with the values.

| IC50 [nM] | SMILES |
| --- | --- |
| < 1000 | CC(=O)c1nn(CC(=O)N2[C@H](C(=O)N[C@H](C)CCc3ccccc3)C[C@@]3(C)C[C@@H]23)c2ccc(-c3cnc(C)nc3)cc12 [Compound 13, (1R,3S,5R)-2-(2-(3-Acetyl-5-(2-methylpyrimidin-5-yl)-1H-indazol-1-yl)acetyl)-5-methyl-N—((R)-4-phenylbutan-2-yl)-2-azabicyclo[3.1.0]hexane-3-carboxamide] |
| < 1000 | CC(=O)c1nn(CC(=O)N2[C@H](C(=O)N[C@@H](C)CC(C)C)C[C@@]3(C)C[C@@H]23)c2ccc(-c3cnc(C)nc3)cc12 [Compound 10, (1R,3S,5R)-2-(2-(3-Acetyl-5-(2-methylpyrimidin-5-yl)-1H-indazol-1-yl)acetyl)-5-methyl-N—((S)-4-methylpentan-2-yl)-2-azabicyclo[3.1.0]hexane-3-carboxamide] |
| < 1000 | CC(=O)c1nn(CC(=O)N2[C@H](C(=O)Nc3cccc(C(F)(F)F)c3F)C[C@@]3(C)C[C@@H]23)c2ccc(-c3cnc(C)nc3)cc12 [Compound 24, (1R,3S,5R)-2-(2-(3-Acetyl-5-(2-methylpyrimidin-5-yl)-1H-indazol-1-yl)acetyl)-N-(2-fluoro-3-(trifluoromethyl)phenyl)-5-methyl-2-azabicyclo[3.1.0]hexane-3-carboxamide] |

Same assay, conditions: Human Factor D 80 nM, substrate Z-L-Lys-SBzl; Table 2; read-out: IC50 (Stars)

| SMILES | IC50 [nM] |
| --- | --- |
| CC(=O)c1cn(CC(=O)N2[C@H](C(=O)Nc3nc(C(F)(F)F)ccc3C)C[C@@]3(C)C[C@@H]23)c2c(C)nc(-c3cnc(C)nc3)cc12 [Compound 200, (1R,3S,5R)-2-{2-[3-acetyl-7-methyl-5-(2-methylpyrimidin-5-yl)pyrrolo[2,3-c]pyridin-1-yl]acetyl}-5-methyl-N-[3-methyl-6-(trifluoromethyl)pyridin-2-yl]-2-azabicyclo[3.1.0]hexane-3-carboxamide] | < 1000 |
| COC(=O)c1ncc(-c2cc(C)c3c(c2)c(C(C)=O)nn3CC(=O)N2[C@H](C(=O)Nc3cncc(Br)n3)C[C@@]3(C)C[C@@H]23)cn1 [Compound 42, Methyl 5-(3-acetyl-1-(2-((1R,3S,5R)-3-((6-bromopyrazin-2-yl)carbamoyl)-5-methyl-2-azabicyclo[3.1.0]hexan-2-yl)-2-oxoethyl)-7-methyl-1H-indazol-5-yl)pyrimidine-2-carboxylate] | < 1000 |
| CC(=O)c1nn(CC(=O)N2[C@H](C(=O)Nc3nc(Br)c(F)cc3C)C[C@@]3(C)C[C@@H]23)c2c(C)cc(-c3cnc(C(C)O)nc3)cc12 (stereo partly drawn) [Compound 96, (1R,3S,5R)-2-(2-(3-acetyl-5-(2-(1-hydroxyethyl)pyrimidin-5-yl)-7-methyl-11H-indazol-1-yl)acetyl)-N-(6-bromo-5-fluoro-3-methylpyridin-2-yl)-5-methyl-2-azabicyclo[3.1.0]hexane-3-carboxamide] | < 1000 |
| CC(=O)c1nn(CC(=O)N2[C@H](C(=O)Nc3nc(Br)ccc3C)C[C@@]3(C)C[C@@H]23)c2c(C)cc(-c3cnc(C(N)=O)nc3)cc12 [Compound 53, (1R,3S,5R)-2-(2-(3-acetyl-5-(2-carbamoylpyrimidin-5-yl)-7-methyl-1H-indazol-1-yl)acetyl)-N-(6-bromo-3-methylpyridin-2-yl)-5-methyl-2-azabicyclo[3.1.0]hexane-3-carboxamide] | < 1000 |
| CC(=O)c1nn(CC(=O)N2[C@H](C(=O)Nc3nc(Br)ccc3C)C[C@@]3(C)C[C@@H]23)c2ccc(-c3cncc(S(N)(=O)=O)c3)cc12 [Compound 71, (1R,3S,5R)-2-(2-(3-Acetyl-5-(5-sulfamoylpyridin-3-yl)-1H-indazol-1-yl)acetyl)-N-(6-bromo-3-methylpyridin-2-yl)-5-methyl-2-azabicyclo[3.1.0]hexane-3-carboxamide] | < 1000 |
| COc1ncc(-c2cc3c(C(C)=O)cn(CC(=O)N4[C@H](C(=O)Nc5nc(C(F)(F)F)ccc5C)C[C@@]5(C)C[C@@H]45)c3c(C)n2)cn1 [Compound 201, (1R,3S,5R)-2-(2-(3-acetyl-5-(2-methoxypyrimidin-5-yl)-7-methyl-1H-pyrrolo[2,3-c]pyridin-1-yl)acetyl)-5-methyl-N-(3-methyl-6-(trifluoromethyl)pyridin-2-yl)-2-azabicyclo[3.1.0]hexane-3-carboxamide] | < 1000 |
| CC(=O)c1nn(CC(=O)N2[C@H](C(=O)Nc3nc(Br)c(F)cc3C)C[C@@]3(C)C[C@@H]23)c2c(C)cc(-c3cnc(C(C)O)cn3)cc12 (stereo partly drawn) [Compound 204, (1R,3S,5R)-2-(2-(3-acetyl-5-(5-(1-hydroxyethyl)pyrazin-2-yl)-7-methyl-1H-indazol-1-yl)acetyl)-N-(6-bromo-5-fluoro-3-methylpyridin-2-yl)-5-methyl-2-azabicyclo[3.1.0]hexane-3-carboxamide] | < 1000 |
| COc1cc(Br)nc(NC(=O)[C@@H]2C[C@@]3(C)C[C@H]3N2C(=O)Cn2nc(C(C)=O)c3cc(-c4cnc(CO)nc4)ccc32)c1 [Compound 67, (1R,3S,5R)-2-(2-(3-acetyl-5-(2-(hydroxymethyl)pyrimidin-5-yl)-1H-indazol-1-yl)acetyl)-N-(6-bromo-4-methoxypyridin-2-yl)-5-methyl-2-azabicyclo[3.1.0]hexane-3-carboxamide] | < 1000 |

More lines, now with the values ahead:

| IC50 [nM] | SMILES |
| --- | --- |
| < 1000 | CC(=O)c1nn(CC(=O)N2C[C@H]3C[C@H]3[C@H]2C(=O)Nc2nc(Br)c(F)cc2C)c2c(C)cc(-c3cnc(C(C)O)nc3)cc12 (stereo partly drawn) [Compound 165, (1R,2S,5S)-3-(2-(3-acetyl-5-(2-(1-hydroxyethyl)pyrimidin-5-yl)-7-methyl-1H-indazol-1-yl)acetyl)-N-(6-bromo-5-fluoro-3-methylpyridin-2-yl)-3-azabicyclo[3.1.0]hexane-2-carboxamide] |
| < 1000 | CC(=O)c1nn(CC(=O)N2[C@H](C(=O)NC(C)Cc3ccccc3F)C[C@@]3(C)C[C@@H]23)c2c(C)cc(-c3cnc(C)nc3)cc12 (stereo partly drawn) [Compound 186, (1R,3S,5R)-2-{2-[3-acetyl-7-methyl-5-(2-methylpyrimidin-5-yl)indazol-1-yl]acetyl}-N-[1-(2-fluorophenyl)propan-2-yl]-5-methyl-2-azabicyclo[3.1.0]hexane-3-carboxamide] |
| < 1000 | CC(=O)c1cn(CC(=O)N2[C@H](C(=O)Nc3ccc(F)c(Br)n3)C[C@@]3(C)C[C@@H]23)c2c(C)cc(-c3cnc(C)nc3)cc12 [Compound 194, (1R,3S,5R)-2-(2-(3-acetyl-7-methyl-5-(2-methylpyrimidin-5-yl)-1H-indol-1-yl)acetyl)-N-(6-bromo-5-fluoropyridin-2-yl)-5-methyl-2-azabicyclo[3.1.0]hexane-3-carboxamide] |
| > 10000 | CC(=O)c1nn(CC(=O)N2[C@H](C(=O)NC3CCC4(CC3)OCCO4)C[C@@]3(C)C[C@@H]23)c2c(C)cc(-c3cnc(C)nc3)cc12 [Compound 138, (1R,3S,5R)-2-{2-[3-acetyl-7-methyl-5-(2-methylpyrimidin-5-yl)indazol-1-yl]acetyl}-N-{1,4-dioxaspiro[4.5]decan-8-yl}-5-methyl-2-azabicyclo[3.1.0]hexane-3-carboxamide] |
| 1000 to 10000 | CC(=O)c1nn(CC(=S)N2C[C@H](F)C[C@H]2C(=O)Nc2cccc(Br)n2)c2ccc(-c3cnc(C)nc3)cc12 [Compound 110, 1-{2-[3-Acetyl-5-(2-methyl-pyrimidin-5-yl)-indazol-1-yl]-thioacetyl}-4-fluoro-pyrrolidine-2-carboxylic acid (6-bromo-pyridin-2-yl)-amide] |
| < 1000 | COC(=O)c1ncc(-c2cc(C)c3c(c2)c(C(C)=O)nn3CC(=O)N2[C@H](C(=O)Nc3nc(Br)c(F)cc3C)C[C@@]3(C)C[C@@H]23)cn1 [Compound 44, Methyl 5-(3-acetyl-1-(2-((1R,3S,5R)-3-((6-bromo-5-fluoro-3-methylpyridin-2-yl)carbamoyl)-5-methyl-2-azabicyclo[3.1.0]hexan-2-yl)-2-oxoethyl)-7-methyl-1H-indazol-5-yl)pyrimidine-2-carboxylate] |
